# Measurements: patent US6383773B2, “Penicillin conversion” (Massachusetts Institute of Technology, priority 1998, dated 2002)
# Experiments:
# [1] = system: S. clavuligerus NP1 resting cells; assay: Penicillin G ring expansion by resting cells, paper disc-agar diffusion bioassay (Example 1); assay type: cell-based; conditions: for DAOG produced: after 3-6 hours of reaction
# Procedure: Resting Cells: From a seed culture (in MST), 0.5 ml was transferred to new flasks containing 40 ml of the same medium. Cells were grown at 30° C., 250 rpm for 24 h. Mycelia from each flask were washed twice, and finally, resuspended in 10 ml of distilled water. Four ml of this cell suspension were used in the reaction mixture.
# Ring Expansion Reaction: We defined ring expansion reaction conditions as modifications of the standard reaction mixture for expandase reactions described by Maeda et al. (Maeda et al., Enzyme Microb. Technol. 17:231-34, 1995) except that penicillin G was used a substrate instead of penicillin N. Additions were made following the order established by Shen et al. (Shen et al., Enzyme Microb. Technol. 6:402-404, 1984. Reaction mixtures were incubated in test tubes (cell-free extract) or 250 ml baffled flasks (resting cells) at 220 rpm, 30° C. Reactions containing the protein extract were stopped at various times (see Table 1 and Figure Legends) by mixing 0.5 ml of assay solution with 0.5 ml of methanol. In the case of resting cells, samples were centrifuged to remove cells and supernatants were transferred to new tubes. Expandase activity was detected by paper disc-agar diffusion bioassay.
# Detection of Expandase Activity: As mentioned above, expandase activity was detected by assaying production of a growth-inhibitory zone in a paper disc-agar diffusion bioassay. Paper discs were saturated with 200 μl of the reaction mixture (cell-free extracts or supernatant (resting cells) as follows. Two discs were superimposed and four 50 μl samples were applied. After each application, the discs were allowed to dry for 20 min at 37° C. under a laminar hood and, finally, they were placed on LB (1% tryptone, 0.5% NaCl, 0.5% yeast extract, 0.1% glucose) 0.8% agar medium seeded with E. coli ESS (a β-lactam supersensitive mutant), and the plates were incubated overnight at 37° C. The formation of DAOG and/or other cephalosporin(s) was determined by including 50,000 IU/ml of penicillinase (Difco Bacto penase concentrate, Difco Laboratories, Detroit, Mich.) in the assay plates. This penicillinase is a narrow spectrum β-lactamase that attacks penicillins but not cephalosporins. The diameters of zones of growth inhibition were measured and quantified with a calibration curve using DAOG as standard.
# [2] = system: resting S. clavuligerus NP1 cells; assay: Penicillin G conversion by resting cells: buffer, preincubation, substrate concentration (Example 4); assay type: cell-based
# Procedure: Microorganisms, Media, and Culture Conditions: S. clavuligerus mutant NP-1, described in Example 1 was used for these studies. A seed culture was made by inoculating a spore suspension (40 μl) into 40 ml MST medium in 250 ml baffled flasks, and incubating for 2 days at 30° C. and 250 rpm. One ml of the seed culture was used as inoculum for the main culture which contained 80 ml of MST medium in 500 ml unbaffled flasks. The flasks were incubated for 24 h at 30° C. and 250 rpm.
# Preparation of Resting Cells: Cells were harvested by centrifugation at 14,000×g, for 15 min at 4° C. and washed twice with cold deionized water. They were resuspended in 10 ml of water.
# Ring Expansion Reaction: The standard reaction mixture (10 ml) contained 0.05 M Tris-HCl pH 7.4, 8.0 mM KCl, 8.0 mM MgSO4.7H2O, 4.0 mM ascorbic acid, 1.8 mM FeSO4.7H2O, 1.28 mM α-ketoglutaric acid, 20 mg/ml penicillin G and 4.0 ml cell suspension. The order of addition of the components were as previously described (Shen et al., Enzyme Microb. Technol. 6:402-404, 1984). The reaction started when penicillin G was added to the reaction mixture which was incubated at 30° C. and 220 rpm.
# Expandase Assay: Product formation was estimated by the paper disk-agar diffusion bioassay as described in example 1, using deacetoxycephalosporin G as standard. Escherichia coli strain Ess, a β-lactam supersensitive, mutant was used as the assay microorganism.
# [3] = molecular target: T1, S. clavuligerus expandase (Streptomyces clavuligerus, UniProt P18548); conditions: literature reports (Jensen 1982; Dotzlaf 1989; Yeh 1994; Maeda 1995); cited from earlier work
# T1 construct: The cells were resuspended in the same buffer and disrupted by four 25-sec. sonication treatments; endogenous in cells; host or cells: S. clavuligerus mutant NP1, crude cell-free extract
# T1 sequence (P18548 whole entry): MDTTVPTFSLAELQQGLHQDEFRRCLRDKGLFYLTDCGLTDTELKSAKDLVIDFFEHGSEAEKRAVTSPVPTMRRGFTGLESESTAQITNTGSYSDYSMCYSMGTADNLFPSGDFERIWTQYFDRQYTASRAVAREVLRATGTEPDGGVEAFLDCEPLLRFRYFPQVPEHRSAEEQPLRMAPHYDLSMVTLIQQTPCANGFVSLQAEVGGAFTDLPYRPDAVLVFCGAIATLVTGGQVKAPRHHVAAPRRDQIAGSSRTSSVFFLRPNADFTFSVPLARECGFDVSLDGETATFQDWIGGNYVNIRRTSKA
smiles,measurement,setting,value
"CC1(C)S[C@@H]2[C@H](NC(=O)Cc3ccccc3)C(=O)N2[C@H]1C(=O)O [Penicillin G, penicillin G]",μg DAOG/ml,"[1]; resting cells 13 mg/ml dry cell weight, 2 mg/ml penicillin G, 2 h, cofactor omitted: ATP (0.7 mM)",10.0 μg DAOG/ml
same,μg DAOG/ml,"[1]; resting cells 13 mg/ml dry cell weight, 2 mg/ml penicillin G, 2 h, cofactor omitted: Ascorbic acid (4 mM)",3.0 μg DAOG/ml
same,μg DAOG/ml,"[1]; resting cells 13 mg/ml dry cell weight, 2 mg/ml penicillin G, 2 h, cofactor omitted: DTT (16 mM)",15.5 μg DAOG/ml
same,μg DAOG/ml,"[1]; resting cells 13 mg/ml dry cell weight, 2 mg/ml penicillin G, 2 h, cofactor omitted: FeSO4.7H2O (1.8 mM)",3.2 μg DAOG/ml
same,μg DAOG/ml,"[1]; resting cells 13 mg/ml dry cell weight, 2 mg/ml penicillin G, 2 h, cofactor omitted: KCl (8 mM)",11.5 μg DAOG/ml
same,μg DAOG/ml,"[1]; resting cells 13 mg/ml dry cell weight, 2 mg/ml penicillin G, 2 h, cofactor omitted: MgSO4.7H2O (8 mM)",10.1 μg DAOG/ml
same,μg DAOG/ml,"[1]; resting cells 13 mg/ml dry cell weight, 2 mg/ml penicillin G, 2 h, cofactor omitted: None",10.5 μg DAOG/ml
same,μg DAOG/ml,"[1]; resting cells 13 mg/ml dry cell weight, 2 mg/ml penicillin G, 2 h, cofactor omitted: α-ketoglutarate (1.28 mM)",3.7 μg DAOG/ml
same,DAOG produced,"[1]; resting cells, Maeda et al. reaction conditions (0.04 mM FeSO4, 0.64 mM α-ketoglutarate)",about 6 μg/ml
same,DAOG produced,"[1]; resting cells, inventive conditions (1.8 mM FeSO4, 1.28 mM α-ketoglutarate)",about 19 μg/ml
same,DAOG produced relative to complete reaction,"[1]; resting cells, two hours, omission of Fe2+, α-ketoglutarate, or ascorbic acid",about 30%
same,μg DAOG/ml,"[1]; resting cells, ATP concentration 0 (mM)",6.6 μg DAOG/ml
same,μg DAOG/ml,"[1]; resting cells, ATP concentration 0.14 (mM)",6.4 μg DAOG/ml
same,μg DAOG/ml,"[1]; resting cells, ATP concentration 0.35 (mM)",6.4 μg DAOG/ml
same,μg DAOG/ml,"[1]; resting cells, ATP concentration 0.7 (mM)",6.6 μg DAOG/ml
same,μg DAOG/ml,"[1]; resting cells, ATP concentration 2.4 (mM)",6.6 μg DAOG/ml
same,μg DAOG/ml,"[1]; resting cells, ATP concentration 3.5 (mM)",4.7 μg DAOG/ml
same,μg DAOG/ml,"[1]; resting cells, Ascorbate concentration 0 (mM)",2.4 μg DAOG/ml
same,μg DAOG/ml,"[1]; resting cells, Ascorbate concentration 0.8 (mM)",4.0 μg DAOG/ml
same,μg DAOG/ml,"[1]; resting cells, Ascorbate concentration 2 (mM)",6.0 μg DAOG/ml
same,μg DAOG/ml,"[1]; resting cells, Ascorbate concentration 4 (mM)",6.4 μg DAOG/ml
same,μg DAOG/ml,"[1]; resting cells, Ascorbate concentration 8 (mM)",6.4 μg DAOG/ml
same,increase of DAOG production,"[1]; resting cells, omission of DTT",approximately 50%
same,percent conversion,"[2]; 0.015 mg/ml substrate, subsequent experiments",≤ 16.5%
same,percent conversion,[2]; 0.063 mg/ml of penicillin G,about 9.0%
same,percent conversion,[2]; 2 mg/ml of penicillin G,about 1.0%
same,percent conversion,[2]; 8 mg/ml of penicillin G,about 0.4%
same,increase of cephalosporin production versus 0.05 M Tris-HCl pH 7.4,[2]; 0.05 M MOPS pH 6.5 or 0.05 M HEPES pH 6.5,more than two-fold
same,penicillin G conversion,"[2]; cells preincubated 3 hours with Fe2+ and ascorbic acid, with or without α-ketoglutarate",virtually eliminated
same,reduction of total production,"[2]; cells preincubated 3 hours with either buffer, Fe2+, ascorbic acid, or α-ketoglutarate",about 50%
same,ring expansion,[3],not
